Measured values as given in patent US5126348A, “Bioavailability enhancers” (priority 1989, dated 1992).
Read-outs that look alike come from different tables or passages of the source.

Legend:
[1] = cited from earlier work
[2] = parameters: species or system beagle dog; conditions: dog, in vivo
[3] = in vivo
Description: Venous blood samples were taken at time intervals listed below. […] After administration to the human volunteer, blood samples were taken at the same time intervals as the previous test. Relative salicylic acid concentrations of the samples were compared using fluorescence units as determined by spectrofluorometer.

[4] = cited from earlier work; remark: listed apart in the source
[5] = Theophylline blood levels as a function of time after oral administration, with and without nicotinic acid (Example 1)
Description: FIG. 1 is a graph showing theophylline blood levels as a function of time after administration, comparing theophylline in combination with nicotinic acid with theophylline alone.

[6] = cited from earlier work; remark: listed apart in the source

NC(=O)c1cccnc1 [niacinamide]
vasodilation or flushing ([1]; niacinamide form): does not cause the vasodilation or flushing

CC(=O)Oc1ccccc1C(=O)O [ASA, acetylsalicylic acid]
absorption induced by reserpine [2]: near-complete absorption
elimination kinetics, reserpine-treated vs. non-pretreated dogs [2]: similar
plasma concentration of SA, reserpine-treated vs. non-pretreated dogs [2]: considerably higher at each time interval
time of peak plasma concentrations of SA, reserpine-treated vs. non-pretreated dogs [2]: at the same time in both tests
% of maximum concentration ([2]; 10 min): 24%
plasma SA concentration ([2]; 10 min): 19.9 µg/mL
% of maximum concentration ([2]; 20 min): 47%
% of maximum concentration ([2]; 30 min): 70%
plasma SA concentration ([2]; 60 min): 72.8 µg/mL
% of maximum concentration ([2]; 120 min): 100%
plasma SA concentration (max) ([2]; 120 min): 81.4 µg/mL
Total area under the plasma level curve, increase over non-pretreated dogs ([2]; 480 min): 13.2%
total AUC, increase ([2]; iv): 14.5%
% of Dose of ASA Absorbed (using IV ASA as 100% absorption) ([2]; po): 87.5%
bioavailability of aspirin with nicotinic acid [3]: enhanced

CC(C)NCC(O)COc1cccc2ccccc12 (stereo not shown) [propranolol]
bioavailability with hydralazine [4]: increased bioavailability

Cn1c(=O)c2[nH]cnc2n(C)c1=O [Theophylline, theophylline]
concentration at 29 min ([5]; human, in vivo, po, 300 mg): < 500 ng/mL
concentration at 1.05 h ([5]; human, in vivo, po, 300 mg): 2200 ng/mL
concentration at 1.55 h ([5]; human, in vivo, po, 300 mg): 4400 ng/mL
concentration at 121 min ([5]; human, in vivo, po, 300 mg): 5300 ng/mL
concentration at 2.5 h ([5]; human, in vivo, po, 300 mg): 7000 ng/mL
concentration at 184 min ([5]; human, in vivo, po, 300 mg): 7200 ng/mL
Blood levels of theophylline ([5]; time after administration 0, oral, 300 mg theophylline, with or without 100 mg niacin): < 50 ng/mL

O=C(O)c1cccnc1 [nicotinic acid]
toxicity ([1]; even at high dosages): relatively harmless
low density lipids and cholesterol in the blood ([1]; high doses (3-6 g/day)): lowers
peripheral vascular resistance ([1]; high doses (3-6 g/day)): decreases
stroke volume of the heart ([1]; high doses (3-6 g/day)): increases
tolerated dosage ([1]; human, in vivo): up to 6 grams per day
effects on blood pressure ([1]; in vivo): only minor effects
heart rate and cardiac output ([1]; in vivo): increases
peripheral blood flow ([1]; in vivo): increases
flushing effect with acetylsalicylic acid ([1]; with acetylsalicylic acid): reduced
absorption with food ingestion [6]: not affected
